# Assay results taken from US20120309792A1, “TETRAZOLE DERIVATIVES AS NICOTINIC ACETYLCHOLINE RECEPTOR MODULATORS” (NEUROSEARCH A/S, priority 2009, published 2012).
# Target: T1, human nicotinic acetylcholine receptor subtype a4b2 (Homo sapiens, UniProt P17787+P43681)
# T1 construct: expressed in transfected cells
# Assay: Characterization of hα4β2 positive allosteric modulators using FLIPR
# Assay type: cell-based
# Conditions: shift of nicotine pEC50 in presence of 10 μM test compound; HEK-293 cells stably expressing hα4β2; fluo-4 calcium FLIPR
# Method: Characterization of hα4β2 Positive Allosteric Modulators Using FLIPR
# The modulator activity is determined as a fluorescence-based assay using a Fluorometric Imaging Plate Reader (FLIPR) as described below in more detail.
# HEK-hα4β2 cells were seeded on poly-D-lysin-coated 384 well microtiter plates and allowed to proliferate for 24 h. Dye loading was performed by incubating cells with 2 μM fluo-4/AM for 1.5 h at room temperature. Dye not taken up by the cells was removed by aspiration, followed by three washing cycles with NMDG Ringer buffer (containing in mM: 140 NMDG, 5 KCl, 1 MgCl2, 10 CaCl2, 10 HEPES, pH 7.4). The microtiter plates were then placed in the FLIPR and subjected to test solutions.
# Full concentration-response curves of nicotine were generated in the absence and presence test compound. Background-subtracted nicotine-mediated calcium responses were determined and normalized to maximal nicotine control responses. Nicotine potencies (expressed as pEC50) were calculated and the difference between the functional potency in the absence and presence of test compound was determined (Δ pEC50).
# The modulatory activity of compounds of the invention determined as ΔpEC50 values in the presence of 10 μM of test compound are presented in Table 1 below.
# T1 sequence (P43681 29-627 limits assumed): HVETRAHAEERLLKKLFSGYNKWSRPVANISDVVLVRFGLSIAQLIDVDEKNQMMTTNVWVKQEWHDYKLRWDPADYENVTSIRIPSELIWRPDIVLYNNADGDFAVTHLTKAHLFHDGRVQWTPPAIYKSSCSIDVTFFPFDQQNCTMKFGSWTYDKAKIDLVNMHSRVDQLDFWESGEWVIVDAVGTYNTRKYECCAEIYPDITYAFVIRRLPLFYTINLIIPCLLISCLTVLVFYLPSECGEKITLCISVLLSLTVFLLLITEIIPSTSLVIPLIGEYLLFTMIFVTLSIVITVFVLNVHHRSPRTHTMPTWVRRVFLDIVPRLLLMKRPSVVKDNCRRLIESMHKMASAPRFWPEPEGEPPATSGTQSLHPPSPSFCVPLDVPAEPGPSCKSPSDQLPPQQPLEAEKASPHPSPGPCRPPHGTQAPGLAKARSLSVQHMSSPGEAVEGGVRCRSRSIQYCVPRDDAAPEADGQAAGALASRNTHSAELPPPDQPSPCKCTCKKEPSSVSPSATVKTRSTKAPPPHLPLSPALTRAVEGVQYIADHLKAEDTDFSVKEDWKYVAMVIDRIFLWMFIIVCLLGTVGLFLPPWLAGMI
# T1 sequence (P17787 26-502): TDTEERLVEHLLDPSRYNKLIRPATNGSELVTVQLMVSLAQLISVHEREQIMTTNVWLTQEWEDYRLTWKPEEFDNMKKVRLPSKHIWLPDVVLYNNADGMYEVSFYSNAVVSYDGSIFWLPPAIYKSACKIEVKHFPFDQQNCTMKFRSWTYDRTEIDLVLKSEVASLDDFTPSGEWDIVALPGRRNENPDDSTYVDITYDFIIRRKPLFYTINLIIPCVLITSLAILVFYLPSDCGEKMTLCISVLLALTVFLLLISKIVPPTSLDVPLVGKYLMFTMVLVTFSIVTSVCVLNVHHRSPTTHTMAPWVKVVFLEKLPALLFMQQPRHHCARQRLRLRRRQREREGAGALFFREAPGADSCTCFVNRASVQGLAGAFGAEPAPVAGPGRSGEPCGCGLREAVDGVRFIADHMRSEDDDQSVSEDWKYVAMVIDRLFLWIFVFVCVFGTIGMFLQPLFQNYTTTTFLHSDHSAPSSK
row,Compound,ΔpEC50
1,"Fc1cncc(-c2nnn(-c3cccnc3)n2)c1 [Compound B16, 3-Fluoro-5-[2-(3-pyridyl)tetrazol-5-yl]pyridine]",1.7
2,"Fc1cncc(-n2nnc(-c3ccc(Cl)nc3)n2)c1 [Compound B20, 2-chloro-5-[2-(5-fluoro-3-pyridyl)tetrazol-5-yl]pyridine]",0.74
3,"Fc1ccc(-c2nnn(-c3cccnc3)n2)cn1 [Compound B14, 2-Fluoro-5-[2-(3-pyridyl)tetrazol-5-yl]pyridine]",1.5
4,"Fc1ccc(-n2nnc(-c3cncc(I)c3)n2)cn1 [Compound B25, 2-fluoro-5-[5-(5-iodo-3-pyridyl)tetrazol-2-yl]pyridine]",0.58
5,"Fc1cncc(-n2nnc(-c3ccc(F)nc3)n2)c1 [Compound B12, 2-Fluoro-5-[2-(5-fluoro-3-pyridyl)tetrazol-5-yl]pyridine]",1.6
6,"Fc1ccc(-n2nnc(-c3cccnc3)n2)cn1 [Compound B9, 2-Fluoro-5-[5-(3-pyridyl)tetrazol-2-yl]pyridine]",1.9
7,"Cc1ncccc1-c1nnn(-c2cccnc2)n1 [Compound B8, 2-Methyl-3-[2-(3-pyridyl)tetrazol-5-yl]pyridine]",−0.29
8,"COc1cncc(-n2nnc(-c3cccnc3)n2)c1 [Compound B3, 3-Methoxy-5-[5-(3-pyridyl)tetrazol-2-yl]pyridine]",−0.16
9,"Cc1ccc(-n2nnc(-c3cccnc3)n2)cn1 [Compound B5, 2-Methyl-5-[5-(3-pyridyl)tetrazol-2-yl]pyridine]",1.7
10,"Fc1cncc(-n2nnc(-c3cccnc3)n2)c1 [Compound A1, 3-Fluoro-5-[5-(3-pyridyl)tetrazol-2-yl]pyridine]",1.5
11,"Fc1cncc(-c2nnn(-c3cncc(F)c3)n2)c1 [Compound B10, 3-Fluoro-5-[2-(5-fluoro-3-pyridyl)tetrazol-5-yl]pyridine]",1.3
12,"Cc1ncccc1-n1nnc(-c2cccnc2)n1 [Compound B7, 2-Methyl-3-[5-(3-pyridyl)tetrazol-2-yl]pyridine]",0.11
13,"Brc1cncc(-n2nnc(-c3cccnc3)n2)c1 [Compound B2, 3-Bromo-5-[5-(3-pyridyl)tetrazol-2-yl]pyridine]",0.55
14,"Fc1cncc(-c2nnn(-c3ccc(Cl)nc3)n2)c1 [Compound B19, 2-chloro-5-[5-(5-fluoro-3-pyridyl)tetrazol-2-yl]pyridine]",1.6
15,"Clc1ccc(-c2nnn(-c3cccnc3)n2)cn1 [Compound B13, 2-Chloro-5-[2-(3-pyridyl)tetrazol-5-yl]pyridine]",1.8
16,"O=C(O)/C=C/C(=O)O.c1cncc(-c2nnn(-c3cccnc3)n2)c1 [Compound B1, 3-[2-(3-Pyridyl)tetrazol-5-yl]pyridine fumarate]",1.8
17,"Clc1cncc(-c2nnn(-c3cccnc3)n2)c1 [Compound B15, 3-Chloro-5-[2-(3-pyridyl)tetrazol-5-yl]pyridine]",1.7
18,"Cc1ccc(-c2nnn(-c3cccnc3)n2)cn1 [Compound B4, 2-Methyl-5-[2-(3-pyridyl)tetrazol-5-yl]pyridine]",1.0
19,"Brc1cncc(-c2nnn(-c3cccnc3)n2)c1 [Compound B23, 3-bromo-5-[2-(3-pyridyl)tetrazol-5-yl]pyridine]",1.5
20,"Cc1cncc(-n2nnc(-c3cccnc3)n2)c1 [Compound B6, 3-Methyl-5-[5-(3-pyridyl)tetrazol-2-yl]pyridine]",0.16
21,"Fc1ccc(-n2nnc(-c3cccnc3F)n2)cn1 [Compound B24, 2-fluoro-3-[2-(6-fluoro-3-pyridyl)tetrazol-5-yl]pyridine]",1.6
22,"Clc1ccc(-n2nnc(-c3cccnc3)n2)cn1 [Compound B17, 2-chloro-5-[5-(3-pyridyl)tetrazol-2-yl]pyridine]",2.0
23,"Fc1cncc(-c2nnn(-c3ccc(F)nc3)n2)c1 [Compound B11, 3-Fluoro-5-[2-(6-fluoro-3-pyridyl)tetrazol-5-yl]pyridine]",1.4
24,"Fc1cncc(-n2nnc(-c3cncc(Cl)c3)n2)c1 [Compound B22, 3-chloro-5-[2-(5-fluoro-3-pyridyl)tetrazol-5-yl]pyridine]",1.1
25,"Clc1cncc(-n2nnc(-c3cccnc3)n2)c1 [Compound B21, 3-chloro-5-[5-(3-pyridyl)tetrazol-2-yl]pyridine]",0.8
26,"Fc1ccc(-n2nnc(-c3cncc(Cl)c3)n2)cn1 [Compound B18, 3-chloro-5-[2-(6-fluoro-3-pyridyl)tetrazol-5-yl]pyridine]",1.5
